{"source": "patent US11446270B2", "about": "“Leonurine crystal and use thereof in preparation of insulin sensitizer, hypoglycemic drug and lipid-lowering drug” (ZHUHAI HENGQIN NEW DISTRICT ZHONGZHU ZHENGTAI MEDICAL …, priority 2017, dated 2022)", "key": {"[1]": {"tested_on": "Sprague-Dawley male rats", "assay": "Chronic continuous administration for 7 days, insulin sensitivity test in rats", "type": "in vivo", "conditions": "rat, vs control, listed as leonurine crystal form A", "description": "Twenty Sprague-Dawley male rats (body weight 180-220 g) were randomly divided into 4 groups, give control solvent and three different doses of leonurine crystal form A respectively. The control solvent group was given an equal volume of DMSO, and the treatment groups were administered at three doses of 30 mg/kg, 60 mg/kg and 120 mg/kg respectively, 5 rats per group, where the leonurine crystal form A was dissolved in DMSO at concentrations of 30 mg/ml, 60 mg/ml and 120 mg/ml respectively. The volume of solvent used per rat is one millilitre per kilogram of body weight. The rats were administered intragastrically with the drugs or control solvent once a day for 7 consecutive days, and performing insulin sensitivity test on the 7th day. The rats were treated with the drugs or control solvent on the day of the test, and weighed before administration, then taking blood from tail vein to measure blood glucose. Each rat was tested for insulin sensitivity 1 hour after administration of the drugs or control solvent, and the rats were not fed food for 4 hours before the insulin sensitivity test to make them fasted but still given water. The insulin dose in the insulin sensitivity test is 0.75 units per kilogram of body weight, and insulin was injected through intraperitonealion. Blood glucose was measured before injection and at 15, 30, 60, 90, and 120 minutes after injection. The data were analyzed by SPSS statistical software (version 11.5), and the results were expressed as mean ±standard error of the mean (mean±SEM). Multiple group comparisons were tested by one-way analysis of variance (ANOVA). P<0.05 was considered as statistically significant."}, "[2]": {"tested_on": "Sprague-Dawley rats", "assay": "Chronic administration for 3 weeks, fasting blood glucose of rats", "type": "in vivo, rat", "conditions": "vs solvent control, listed as leonurine crystal form A", "description": "(§1) Forty male Sprague-Dawley rats weighed 180 to 220 g were randomly divided into 4 groups (10 rats each group): control group are treated with equal volume of DMSO, and the treatment groups were administered at 30 mg/kg per day, 60 mg/kg per day, and 120 mg/kg per day of leonurine crystal form A respectively, where leonurine crystal form A was dissolved in DMSO at concentrates of 30 mg/ml, 60 mg/ml and 120 mg/ml, and the volume of vehicle administered intragastrically in each rat was 1 ml per kg of body weight. The rats were treated with leonurine crystal form A or DMSO once a day continuously for 3 weeks, and the body weight and fasting blood-glucose were detected at third week. The rats were fasted (allowed water ad libitum) for 12 h before experiment. Fasting blood-glucose and body weight were tested after 1 h of administered drugs. The rats were not given drugs on the next days for one week, and the body weight and fasting blood-glucose were detected at forth week. The data were analyzed by SPSS statistical software (version 11.5), and results were expressed as the mean±standard error of the mean (mean±SEM). Multiple group comparisons were tested by one-way analysis of variance (ANOVA). P<0.05 was considered as statistically significant."}, "[3]": {"tested_on": "Sprague-Dawley male rats", "assay": "Single dosage acute administration, insulin sensitivity test in rats", "type": "in vivo", "conditions": "rat, vs DMSO control", "description": "Thirty-two Sprague-Dawley male rats (body weight 180-220 g) were randomly divided into 4 groups, gave control solvent and three different doses of leonurine crystal form A respectively. The control solvent group was given an equal volume of DMSO, and the treatment groups were administered with three doses of 30 mg/kg, 60 mg/kg and 120 mg/kg respectively, 8 rats per group, where the leonurine crystal form A was dissolved in DMSO at concentrations of 30 mg/ml, 60 mg/ml and 120 mg/ml respectively. The volume of solvent obtained per rat is one millilitre per kilogram of body weight. The route of administration is gavage, weighing before gavage, and taking blood from tail vein to measure blood glucose. Each rat was tested for insulin sensitivity 1 hour after administration of drugs or control solvent, the dose of insulin selected was 0.5 units per kilogram of body weight, intraperitoneal injection of insulin, blood glucose was measured before injection and at 15, 30, 60, 90, and 120 minutes after injection. The data were analyzed by SPSS 11.5 statistical software, and the results were expressed as mean ±standard error of the mean (mean±SEM), pairwise comparison between groups was examined by one-way analysis of variance (ANOVA), P<0.05 was considered significant difference between the groups."}, "[4]": {"assay": "Chronic administration for 3 weeks, body weight of rats", "type": "in vivo, rat", "conditions": "fourth week (one week after discontinuation), vs solvent control, listed as leonurine crystal form A", "description": "as §1"}, "[5]": {"tested_on": "Sprague-Dawley rats", "assay": "Chronic administration for 3 weeks, glucose tolerance test (OGTT) in rats", "type": "in vivo", "conditions": "rat, vs solvent control, listed as leonurine crystal form A", "description": "[…] male Sprague-Dawley rats weighed 180 to 220 g were randomly divided into 4 groups, and with vehicle or three different dose of leonurine crystal form A treatment respectively: control group are treated with equal volume of DMSO, and treatment groups are treated with 30 mg/kg per day, 60 mg/kg per day, or 120 mg/kg per day of leonurine crystal form A. Leonurine crystal form A was dissolved in DMSO at concentrates of 30 mg/ml, 60 mg/ml and 120 mg/ml, and the volume of vehicle administered intragastrically in each rat was 1 ml per kg of body weight. The rats were treated with leonurine crystal form A or DMSO once a day for 3 weeks. Oral glucose tolerance test (OGTT) was detected at third week, and the rats were fasted 12 h before OGTT experiment. OGTT experiment was performed 1 h after administered of drugs. Blood glucose and body weight were tested before OGTT. OGTT: Rats were given 25% glucose solution (2 g/kg of body weight, 8 ml/kg) by […], and blood glucose concentration was determined from the tail vein at 15, 30, 60 and 120 min. The drug was discontinued for one week after OGTT, and the body weight and fasting blood-glucose were detected at forth week.\nThe data were analyzed by SPSS statistical software (version 11.5), and results were expressed as the mean±standard error of the mean (mean±SEM). Multiple group comparisons were tested by one-way analysis of variance (ANOVA). P<0.05 was considered as statistically significant. […] At 15 min time point, the glucose tolerance curve was shifted down. […] Moreover, at 60 min time point, the glucose tolerance curve also was moved down at the dose of 30 mg/kg/d and 120 mg/kg/d."}}, "note": "“Also recorded” adds a separate entry of the source."}
{"smiles": "COc1cc(C(=O)OCCCCNC(=N)N)cc(OC)c1O", "note": "[crystal form A, 4-guanidino-1-butyl 4-hydroxy-3,5-dimethoxybenzoate]", "values": [{"measurement": "insulin sensitivity curve", "setting": "[1]; 30 mg/kg/d for 7 days, 30 minute time point, 30 mg/kg/day", "result": "increased insulin sensitivity; also recorded: decreased significantly"}, {"measurement": "insulin sensitivity curve", "setting": "[1]; 30 mg/kg/d for 7 days, 60 minute time point, 30 mg/kg/day", "result": "increased insulin sensitivity; also recorded: decreased significantly"}, {"measurement": "insulin sensitivity curve", "setting": "[1]; 30 mg/kg/d for 7 days, 90 minute time point, 30 mg/kg/day", "result": "increased insulin sensitivity; also recorded: decreased significantly"}, {"measurement": "insulin sensitivity curve", "setting": "[1]; 60 mg/kg/d for 7 days, 30 minute time point, 60 mg/kg/day", "result": "increased insulin sensitivity; also recorded: decreased significantly"}, {"measurement": "insulin sensitivity curve", "setting": "[1]; 60 mg/kg/d for 7 days, 60 minute time point, 60 mg/kg/day", "result": "increased insulin sensitivity; also recorded: decreased significantly"}, {"measurement": "insulin sensitivity curve", "setting": "[1]; 60 mg/kg/d for 7 days, 90 minute time point, 60 mg/kg/day", "result": "increased insulin sensitivity; also recorded: decreased significantly"}, {"measurement": "insulin sensitivity curve", "setting": "[1]; 120 mg/kg/d for 7 days, 60 minute time point, 120 mg/kg/day", "result": "increased insulin sensitivity; also recorded: decreased significantly"}, {"measurement": "fasting blood glucose of rats", "setting": "[2]; 60 mg/kg/d for 3 weeks, fourth week", "result": "significantly reduced; also recorded: decreased fasting blood glucose"}, {"measurement": "fasting blood glucose of rats", "setting": "[2]; 60 mg/kg/d, after 3 weeks of continuous administration", "result": "had not statistically difference; also recorded: not statistically significant"}, {"measurement": "fasting blood glucose of rats", "setting": "[2]; 120 mg/kg/d for 3 weeks, fourth week", "result": "significantly reduced; also recorded: decreased fasting blood glucose"}, {"measurement": "fasting blood glucose of rats", "setting": "[2]; 120 mg/kg/d, after 3 weeks of continuous administration", "result": "significant reduce; also recorded: significantly decreased"}, {"measurement": "insulin sensitivity curve (blood glucose after insulin injection)", "setting": "[3]; single gavage 30 mg/kg", "result": "basically coincident with the control group"}, {"measurement": "insulin sensitivity curve (blood glucose after insulin injection)", "setting": "[3]; single gavage 60 mg/kg, 60 minute time point, listed as leonurine crystal form A, 60 mg/kg", "result": "reached statistical significance; also recorded: decreased significantly"}, {"measurement": "insulin sensitivity curve (blood glucose after insulin injection)", "setting": "[3]; single gavage 120 mg/kg, 60 minute time point", "result": "no statistically significant difference was observed"}, {"measurement": "weight of rats", "setting": "[4]; 60 mg/kg/d for 3 weeks", "result": "significantly reduced; also recorded: significantly decreased"}, {"measurement": "weight of rats", "setting": "[4]; 120 mg/kg/d for 3 weeks", "result": "had not statistically difference; also recorded: not statistically significant"}, {"measurement": "glucose tolerance curve (blood glucose)", "setting": "[5]; 30 mg/kg/d for 3 weeks, 15 minute time point, 30 mg/kg/day", "result": "reduce the degree of elevation of blood glucose; also recorded: decrease the level of blood glucose"}, {"measurement": "glucose tolerance curve (blood glucose)", "setting": "[5]; 30 mg/kg/d for 3 weeks, 60 minute time point, 30 mg/kg/day", "result": "reduce the degree of elevation of blood glucose; also recorded: decrease the level of blood glucose"}, {"measurement": "glucose tolerance curve (blood glucose)", "setting": "[5]; 120 mg/kg/d for 3 weeks, 60 minute time point, 120 mg/kg/day", "result": "reduce the degree of elevation of blood glucose; also recorded: decrease the level of blood glucose"}]}
